Laboratory results reported in patent US12215133B2 (BrightGene Bio-Medical Technology Co., Ltd., priority 2021, dated 2025).

Tests used:
GLP-1 receptor = target: T1, GLP-1 receptor (Homo sapiens, UniProt P43220); test: cAMP experiment, GLP-1 receptor (HEK293 host cell line); format: cell-based; conditions: HEK293 host cells
T1 construct: expressed in transfected cells; host or cells: HEK293 cell line

GIP receptor = target: T2, GIP receptor (Homo sapiens, UniProt P48546); test: cAMP experiment, GIP receptor (CHO host cell line); format: cell-based; conditions: CHO host cells
T2 construct: expressed in transfected cells; host or cells: CHO cell line
T2 sequence (P48546 22-466): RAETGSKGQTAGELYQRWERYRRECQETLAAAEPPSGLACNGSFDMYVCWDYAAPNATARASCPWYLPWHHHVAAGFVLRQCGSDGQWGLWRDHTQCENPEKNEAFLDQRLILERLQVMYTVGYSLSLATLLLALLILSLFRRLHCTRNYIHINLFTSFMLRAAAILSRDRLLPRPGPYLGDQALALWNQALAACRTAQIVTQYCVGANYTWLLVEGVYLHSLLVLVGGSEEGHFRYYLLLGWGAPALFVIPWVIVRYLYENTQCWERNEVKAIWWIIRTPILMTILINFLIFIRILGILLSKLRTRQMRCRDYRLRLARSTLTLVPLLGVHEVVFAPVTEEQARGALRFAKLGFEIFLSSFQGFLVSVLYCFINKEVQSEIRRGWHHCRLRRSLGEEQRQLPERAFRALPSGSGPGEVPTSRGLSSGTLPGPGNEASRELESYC

T1 sequence (P43220 24-463, species assumed): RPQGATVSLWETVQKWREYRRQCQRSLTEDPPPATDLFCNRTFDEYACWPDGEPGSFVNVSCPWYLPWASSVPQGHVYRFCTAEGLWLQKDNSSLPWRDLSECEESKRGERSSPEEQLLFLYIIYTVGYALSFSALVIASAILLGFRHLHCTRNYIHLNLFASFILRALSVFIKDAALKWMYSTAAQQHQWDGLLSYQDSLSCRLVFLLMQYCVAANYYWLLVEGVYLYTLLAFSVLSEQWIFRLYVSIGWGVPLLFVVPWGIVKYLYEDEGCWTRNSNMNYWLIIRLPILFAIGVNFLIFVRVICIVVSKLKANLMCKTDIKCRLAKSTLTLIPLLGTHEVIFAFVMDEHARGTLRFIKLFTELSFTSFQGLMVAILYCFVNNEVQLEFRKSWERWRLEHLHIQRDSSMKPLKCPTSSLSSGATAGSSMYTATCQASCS

`CC[C@H](C)[C@H](NC(=O)[C@H](CC(C)C)NC(=O)[C@H](Cc1c[nH]c2ccccc12)NC(=O)[C@H](CCC(N)=O)NC(=O)[C@@H](NC(=O)[C@H](Cc1ccccc1)NC(=O)[C@H](C)NC(=O)[C@H](CCCCN)NC(=O)[C@H](CCC(N)=O)NC(=O)[C@H](C)NC(=O)[C@@H](NC(=O)[C@H](CCCCNC(=O)COCCOCCOCCNC(=O)COCCOCCOCCNC(=O)CC[C@H](NC(=O)CCCCCCCCCCCCCCCCCCC(=O)O)C(=O)O)NC(=O)[C@H](CC(=O)O)NC(=O)[C@H](CC(C)C)NC(=O)C(C)(C)NC(=O)[C@@H](NC(=O)[C@H](CO)NC(=O)[C@H](Cc1ccc(O)cc1)NC(=O)[C@H](CC(=O)O)NC(=O)[C@H](CO)NC(=O)[C@@H](NC(=O)[C@H](Cc1ccccc1)NC(=O)[C@@H](NC(=O)CNC(=O)[C@H](CCC(=O)O)NC(=O)C(C)(C)NC(=O)[C@@H](N)Cc1ccc(O)cc1)[C@@H](C)O)[C@@H](C)O)[C@@H](C)CC)[C@@H](C)CC)C(C)C)C(=O)N[C@@H](C)C(=O)NCC(=O)NCC(=O)N1CCC[C@H]1C(=O)N[C@@H](CO)C(=O)N[C@@H](CO)C(=O)NCC(=O)N[C@@H](C)C(=O)N1CCC[C@H]1C(=O)N1CCC[C@H]1C(=O)N1CCC[C@H]1C(=O)N[C@@H](CO)C(N)=O` [BGM125, reference compound] gave an EC50 (GLP-1 receptor) of 0.0692 nM and an EC50 (GIP receptor) of 0.684 nM.
